Assay results as given in patent publication US20240425478A1, “CYCLOPENTYLPYRAZOLE CDK2 INHIBITORS” (Genentech, Inc., priority 2021, published 2024).
Values joined by “and” are separate entries in the source; they are usually repeats but may differ in a detail not shown here. Equal entries are not always repeated. Where two headings read alike, the source gives them in different places.

How the values were obtained:
[1] = biological target: T1, Cyclin Dependent Kinase 1/Cyclin A2 (CDK1-cycA2) (Homo sapiens, UniProt P06493); test: CDK1-cycA2 TR-FRET (Lance) enzyme assay; format: biochemical; conditions: for Ki: Table O, enzymatic assay; for FS CDK1/CDK2: fold selectivity, enzymatic Ki ratio
T1 construct: purchased ProQinase 0134-0054-1
Summary of the method: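 TR-FRET (Lance) detection of phospho-4E-BP1 with a europium-labelled antibody after EDTA quench (15 mM final); signal taken as acceptor/donor ratio. Enzyme and compound were pre-incubated 30 min in HEPES pH 7.5 buffer with MgCl2, TCEP, BGG and Brij 35. Ki derived by Morrison fit.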

[2] = biological target: T2, Cyclin Dependent Kinase 2/Cyclin E1 (CDK2-cycE1) (Homo sapiens, UniProt P24941); test: CDK2-cycE1 TR-FRET (LANCE) enzyme assay; format: biochemical; conditions: for FS CDK1/CDK2 / FS CDK4/CDK2: fold selectivity;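 as to improvement in potency against CDK2 (Ki) over Comparator C: fold lower CDK2 Ki than comparator c (Ki 0.032 µM)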
T2 construct: purchased ProQinase 0050-0055-1
Summary of the method: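 Kinase reaction buffer: 50 mM HEPES pH 7.5, 10 mM MgCl2, 2 mM TCEP, 0.05% BGG, 0.01% Brij 35, with 30 min compound–enzyme pre-incubation.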

[3] = biological target: T3, Cyclin Dependent Kinase 4/Cyclin D3 (CDK4-cycD3) (Homo sapiens, UniProt P11802); test: CDK4-cycD3 TR-FRET (LANCE) enzyme assay; format: biochemical; conditions: for Ki: Table O, enzymatic assay
T3 construct: purchased Carna Biosciences 04-105
Summary of the method: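 Compound dose responses pre-incubated 30 min with enzyme mix in 50 mM HEPES pH 7.5, 10 mM MgCl2, 2 mM TCEP, 0.05% BGG, 0.01% Brij 35. Reaction quenched with EDTA (15 mM final); Eu-anti-phospho-4E-BP1 TR-FRET detection, acceptor/donor ratio. Ki derived by Morrison equation.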

[4] = test system: OVISE (JCRB1043, CCNE1-amplified); test: OVISE EdU incorporation cell proliferation assay (CDK2-dependent); format: cell-based; conditions: for IC50: cellular assay, read-out: CDK2 OVISE IC50; for FS SKOV-3/OVISE / FS p-H3/OVISE: fold selectivity; for FS p-H3/OVISE: cellular p-H3 IC50 over OVISE IC50
Summary of the method: (§1)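 EdU incorporation (0.5 μM final, last 8 h) follows a 16 h compound exposure at 37 °C, 5% CO2 in RPMI plus 10% FBS, 0.5% DMSO. After fixation, imaging scores EdU-positive cells; a 4-parameter logistic fit of that fraction gives IC50.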

[5] = test system: SKOV-3 (ATCC HTB-77); test: SKOV-3 EdU incorporation cell proliferation assay (CDK4/6-dependent); format: cell-based; conditions: for IC50: Homo sapiens, cellular assay, read-out: CDK4/6 SKOV-3 IC50; for FS SKOV-3/OVISE: fold selectivity
Summary of the method: as §1

[6] = test system: HCT116 cells; test: p-H3 HCT-116 mitotic release cell proliferation assay (cellular CDK1); format: cell-based; conditions: for IC50: Homo sapiens, HCT-116, Table O, cellular assay, read-out: CDK1 p-H3 IC50
Method: Inhibition of cellular CDK1 determined by release of cells from nocodazole-induced mitotic arrest, as measured by decrease in phospho-Histone H3. Histone H3 (Ser 10) level is detected in cell lysates by producing a Fluorescence Resonance Energy Transfer (FRET) signal between two antibodies, Phospho-Histone H3 Cryptate (acting as the donor) and Phospho-Histone H3 d2 (acting as the acceptor).
Plates are allowed to rest overnight at 37° C./5% CO2. The following morning, nocodazole is diluted in complete medium, and 5 μL is added to each test well and positive control well for a final concentration of 500 nM. Plates are then incubated for 16 hours at 37° C./5% CO2. […] 10 μL of diluted compound is then transferred to the cell plate (final DMSO concentration 0.1%). Cell plates are then incubated for 4 hours in 37° C. 5% CO2. A cell lysis buffer is prepared on ice using reagents from the Phospho-Histone H3 (Ser10) cellular kit (Cisbio-64HH3PEG). Supernatant is discarded from the cell plate and 80 μL of the supplemented cell lysis buffer (1:99 dilution of the Blocking Reagent and the 1× cell lysis buffer provided in the kit) is added to each of the experimental wells. The cell lysis reaction is allowed to proceed at room temperature while shaking vigorously for 30 minutes. The 384-well HTRF (Homogeneous Time Resolved Fluorescence) plate is prepared by adding 2 μL of each diluted antibody (Phospho-Histone H3 Cryptate antibody and Phospho-Histone H3 d2 antibody diluted 19:1 in a detection buffer) and 12 μL of the supplemented cell lysis buffer to each well in the HTRF plate. 4 μL of the cell lysate is added to the prepared HTRF plate which is then sealed and the reaction is allowed to proceed for a minimum of 2 hours at room temperature.

[7] = Table O, enzymatic assay, read-out: CDK2 Ki
[8] = Table O, enzymatic CDK1 Ki over CDK2 Ki
[9] = Table O, enzymatic CDK4 Ki over CDK2 Ki
[10] = Table O, cellular SKOV-3 IC50 over OVISE IC50
[11] = SKOV-3/OVISE fold-selectivity cellular assay data

T1 sequence (P06493 whole entry): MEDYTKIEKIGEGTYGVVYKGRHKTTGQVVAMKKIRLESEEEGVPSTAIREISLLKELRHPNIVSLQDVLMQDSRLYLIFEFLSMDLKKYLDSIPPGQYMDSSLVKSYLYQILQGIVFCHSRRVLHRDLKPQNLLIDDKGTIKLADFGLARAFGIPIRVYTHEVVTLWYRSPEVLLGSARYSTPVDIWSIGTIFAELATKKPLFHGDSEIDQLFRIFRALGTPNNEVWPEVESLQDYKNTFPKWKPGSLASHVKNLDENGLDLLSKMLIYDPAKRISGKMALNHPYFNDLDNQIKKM
T1 sequence (P20248 whole entry partner): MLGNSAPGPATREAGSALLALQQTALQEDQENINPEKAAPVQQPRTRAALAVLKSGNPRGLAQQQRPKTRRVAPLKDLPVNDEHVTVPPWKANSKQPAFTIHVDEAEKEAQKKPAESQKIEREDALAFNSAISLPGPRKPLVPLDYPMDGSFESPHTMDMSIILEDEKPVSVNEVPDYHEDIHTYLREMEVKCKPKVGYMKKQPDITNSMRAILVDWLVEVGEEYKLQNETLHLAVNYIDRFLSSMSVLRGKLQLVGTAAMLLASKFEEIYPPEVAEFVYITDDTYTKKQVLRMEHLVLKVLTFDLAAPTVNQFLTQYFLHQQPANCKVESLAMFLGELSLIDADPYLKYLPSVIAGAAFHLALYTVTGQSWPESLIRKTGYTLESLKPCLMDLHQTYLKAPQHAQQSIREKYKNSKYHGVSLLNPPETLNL
T3 sequence (P11802 whole entry): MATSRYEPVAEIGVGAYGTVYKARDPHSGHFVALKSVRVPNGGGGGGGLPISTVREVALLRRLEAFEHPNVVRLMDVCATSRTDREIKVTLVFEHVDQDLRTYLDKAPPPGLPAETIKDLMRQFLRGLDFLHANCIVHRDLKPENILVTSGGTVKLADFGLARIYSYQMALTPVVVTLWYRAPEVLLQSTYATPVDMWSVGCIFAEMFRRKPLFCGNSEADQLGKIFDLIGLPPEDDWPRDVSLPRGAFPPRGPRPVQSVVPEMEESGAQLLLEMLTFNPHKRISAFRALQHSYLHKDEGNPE
T3 sequence (P30281 whole entry partner): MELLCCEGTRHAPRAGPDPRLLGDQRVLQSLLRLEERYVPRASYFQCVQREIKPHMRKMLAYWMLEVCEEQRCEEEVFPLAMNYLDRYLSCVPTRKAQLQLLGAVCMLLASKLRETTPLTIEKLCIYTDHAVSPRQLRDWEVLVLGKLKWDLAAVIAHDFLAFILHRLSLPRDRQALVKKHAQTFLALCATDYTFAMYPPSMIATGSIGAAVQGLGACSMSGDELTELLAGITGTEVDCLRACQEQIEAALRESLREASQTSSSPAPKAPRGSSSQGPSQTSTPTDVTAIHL

CC(C)(C)NC(=O)O[C@@H]1CC[C@H](c2cc(Nc3ccnnc3)n[nH]2)C1 [Example 4K, (1R,3S)-3-(3-(pyridazin-4-ylamino)-1H-pyrazol-5-yl)cyclopentyl tert-butylcarbamate]
Ki [1]: 0.027 µM | FS CDK1/CDK2 increased over Comparator D, (+) sign ([1]; Table R): (+) | FS CDK1/CDK2 ([1]; Table R): 54 | FS CDK1/CDK2 ([1]; Table S): 54 | FS CDK1/CDK2 ([1]; Table P): 54 | Ki [2, 7]: 0.00045 µM | FS CDK1/CDK2 [2, 8]: 54 | FS CDK4/CDK2 [2, 9]: 104 | Ki ([2]; Table R, enzymatic assay, read-out: CDK2 Ki): 0.00045 µM | CDK2 Ki fold change in potency versus Comparator D ([2]; Table R, in brackets after CDK2 Ki): 6 fold | Ki ([2]; Table S, enzymatic assay, read-out: CDK2 Ki): 0.00045 µM | CDK2 Ki fold change in potency versus Comparator E ([2]; Table S, in brackets after CDK2 Ki): 1.2 fold | Ki ([2]; enzymatic assay, Table P, read-out: CDK2 Ki): 0.00045 µM | CDK2 Ki fold potency relative to Comparator A ([2]; first bracket in CDK2 Ki cell, Table P): 0.4 fold | Ki ([2]; read-out: CDK2 activity / potency (enzymatic assay)): ≤ 0.001 µM and 0.00045 µM | CDK2 Ki fold potency relative to Comparator B ([2]; second bracket in CDK2 Ki cell, Table P): 2 fold | Ki [3]: 0.052 µM | FS CDK4/CDK2 increased over Comparator D, (+) sign ([3]; Table R): (+) | FS CDK4/CDK2 increased over Comparator E, (+) sign ([3]; Table S): (+) | CDK2 cell potency compared with Comparator E ([4]; CDK2 OVISE cellular assay data): more potent CDK2 cell inhibitors compared to Comparator E | IC50 ([4]; Table O): 0.078 µM | FS SKOV-3/OVISE [4, 10]: 71 | FS p-H3/OVISE ([4]; Table O): 2.1 | CDK2 OVISE IC50 fold change in potency versus Comparator D ([4]; Table R, in brackets after OVISE IC50): 49 fold | CDK2 OVISE IC50 fold change in potency versus Comparator E ([4]; Table S, in brackets after OVISE IC50): 2.2 fold | CDK2 OVISE IC50 fold potency relative to Comparator A ([4]; first bracket in OVISE IC50 cell, Table P): 0.5 fold | CDK2 OVISE IC50 fold potency relative to Comparator B ([4]; second bracket in OVISE IC50 cell, Table P): 1.8 fold | IC50 ([5]; SK-OV-3, Table O): 5.5 µM | CDK2 selectivity over CDK4/6 compared with Comparators A and B [5, 11]: at least three times more CDK2 selective over CDK4/6 | selectivity for CDK2 over CDK4 compared with Comparator E [5, 11]: increase in selectivity for CDK2 over CDK4 | FS SKOV-3/OVISE increased over Comparator D, (+) sign ([5]; Table R): (+) | FS SKOV-3/OVISE ([5]; Table R, cellular IC50 ratio): 71 | FS SKOV-3/OVISE increased over Comparator E, (+) sign ([5]; Table S): (+) | FS SKOV-3/OVISE ([5]; Table S, cellular IC50 ratio): 71 | FS SKOV-3/OVISE compared with Comparator A ([5]; first sign in cell, Table P): (+) | FS SKOV-3/OVISE ([5]; cellular IC50 ratio (CDK4/6 over CDK2), Table P): 71 | FS SKOV-3/OVISE compared with Comparator B ([5]; second sign in cell, Table P): (+) | pH3/OVISE fold selectivity (CDK1 over CDK2, cellular assay data) [6]: 2.1 fold | IC50 [6]: 0.16 µM | FS p-H3/OVISE compared with Comparator A ([6]; first sign in cell, Table P): (+) | FS p-H3/OVISE ([6]; fold selectivity, cellular IC50 ratio (CDK1 over CDK2), Table P): 2.1 | FS p-H3/OVISE compared with Comparator B ([6]; second sign in cell, Table P): (+)

CC1(NC(=O)O[C@@H]2CC[C@H](c3cc(Nc4cccnn4)n[nH]3)C2)CNC1 [Example 3F, (1R,3S)-3-(3-(pyridazin-3-ylamino)-1H-pyrazol-5-yl)cyclopentyl (3-methylazetidin-3-yl)carbamate]
Ki [1]: 0.11 µM | Ki [2, 7]: 0.004 µM | FS CDK1/CDK2 [2, 8]: 27 | FS CDK4/CDK2 [2, 9]: 6 | Ki [3]: 0.024 µM | IC50 ([4]; Table O): 0.32 µM | FS SKOV-3/OVISE [4, 10]: 4.1 | FS p-H3/OVISE ([4]; Table O): 1.1 | IC50 ([5]; SK-OV-3, Table O): 1.3 µM | IC50 [6]: 0.35 µM

CC(C)NC(=O)O[C@@H]1CC[C@H](c2cc(Nc3ccc(-n4ccnc4)cn3)n[nH]2)C1 [Example 2EE, (1R,3S)-3-(3-((5-(1H-imidazol-1-yl)pyridin-2-yl)amino)-1H-pyrazol-5-yl)cyclopentyl isopropylcarbamate]
Ki [1]: 0.29 µM | improvement in potency against CDK2 (Ki) over Comparator C [2]: 10 fold | Ki [2, 7]: 0.0032 µM | FS CDK1/CDK2 [2, 8]: 91 | FS CDK4/CDK2 [2, 9]: 59 | increased fold-selectivity CDK1/CDK2 over Comparator C ([2]; Table Q, (+) sign after FS CDK1/CDK2): (+) (The (+) sign in Table Q signifies desirable increased fold-selectivity of the exemplary compounds over Comparator C) | increased fold-selectivity CDK4/CDK2 over Comparator C ([2]; Table Q, (+) sign after FS CDK4/CDK2): (+) (The (+) sign in Table Q signifies desirable increased fold-selectivity of the exemplary compounds over Comparator C) | Ki ([2]; Table Q, enzymatic assay, read-out: CDK2 Ki): 0.0032 µM | FS CDK1/CDK2 ([2]; Table Q, enzymatic): 91 | FS CDK4/CDK2 ([2]; Table Q, enzymatic): 59 | Ki [3]: 0.19 µM | IC50 ([4]; Table O): 0.34 µM | FS SKOV-3/OVISE [4, 10]: 29 | FS p-H3/OVISE ([4]; Table O): 2.6 | increased fold-selectivity SKOV-3/OVISE over Comparator C ([4]; Table Q, (+) sign after FS SKOV-3/OVISE): (+) (The (+) sign in Table Q signifies desirable increased fold-selectivity of the exemplary compounds over Comparator C) | FS SKOV-3/OVISE ([4]; Table Q, cellular): 29 | improvement in CDK2 OVISE cell potency over Comparator C ([4]; Table Q, in brackets after OVISE IC50, Comparator C 5.5 μM): 16 fold | IC50 ([5]; SK-OV-3, Table O): 9.7 µM | IC50 ([5]; SK-OV-3, Table Q): 9.7 µM | IC50 [6]: 0.9 µM
